Biological target: Carbonic anhydrase 2 (Homo sapiens, UniProt P00918)
Description: Compound was tested for the binding affinity towards Carbonic anhydrase II by competitive fluorescence assay with dansylamide

SMILES	Kd [nM]
NC(CO)C(=O)[C@@H](N)C(=O)NCCOCCOCCNC(=O)c1ccc(S(N)(=O)=O)cc1 (stereo not given in full)	41
NCC(=O)[C@@H](N)C(=O)NCCOCCOCCNC(=O)c1ccc(S(N)(=O)=O)cc1	19
CC(C)CC(N)C(=O)[C@@H](N)C(=O)NCCOCCOCCNC(=O)c1ccc(S(N)(=O)=O)cc1 (stereo not given in full)	16
NCCCCC(N)C(=O)[C@@H](N)C(=O)NCCOCCOCCNC(=O)c1ccc(S(N)(=O)=O)cc1 (stereo not given in full)	50
NC(CCC(=O)O)C(=O)[C@@H](N)C(=O)NCCOCCOCCNC(=O)c1ccc(S(N)(=O)=O)cc1 (stereo not given in full)	100

Source: ChEMBL document CHEMBL1128410 (J Med Chem, 1995)
